Experimental data as given in US9585391B2, “Pesticidal mixtures” (priority 2009, dated 2017).

Legend:
Assay type in all cases: in vivo
cucumber cotyledons = experiment: growth (biomass) of cucumber cotyledons; conditions: for stimulation of the growth of the cotyledons: applied alone; for Mean cotyledon biomass: 4 days in the dark at 21.5° C.; for Observed efficacy: % biomass increase compared to the control
Method: The effect of fluxapyroxad solo, dicamba solo and a mixture comprising both compounds on the growth (biomass) of cucumber cotyledons was evaluated. […] Subsequently, 20 to 30 cotyledons per treatment were cut and placed in a Petri dish containing 10 ml of the treatment solution as described below. Control cotyledons were treated with the 0.5% DMSO solution only. Following the incubation in the dark at 21.5° C. for 4 days the cotyledons were weight and the fresh biomass recorded (table 2). […] The efficacy of the tested active ingredients was calculated as % of biomass increase compared to the control: E=(a/b−1)·100 a corresponds to biomass of cotyledons after incubation in the treated plants in g; and b corresponds to biomass of cotyledons after incubation in the control in g. […] The expected efficacies of the combinations of the active ingredients were estimated using Colby's formula (Colby, S.

wheat leaves = experiment: relative weight loss of detached wheat leaves (drought tolerance); conditions: for fresh weight loss: applied alone
Method: The relative weight loss of wheat leaves treated or not treated with fluxapyroxad, dicamba, and mixtures thereof as an indirect parameter for increased drought tolerance was assessed. Leaves of 10 to 14 days old wheat plants were detached and placed into Eppendorf caps containing 2.2 ml of the test solution as described below. The wheat leaves were incubated for 24 h at 25° C. and 50% relative humidity in a growth chamber. After incubation, the incubated leaves were removed from the solution and placed on filter paper in a growth chamber for 60 minutes (25° C., 50% rel. humidity). Fresh biomass of the leaves was assessed directly after incubation and in addition after 60 minutes. The difference in fresh weight was recorded as relative weight loss. The relative loss of fresh weight is calculated as: [formula] In the present example wheat plants of the variety ‘Monopol’ were grown at 18° C. for 10 days in the greenhouse prior to the treatment and the incubation. 10 plants per treatment were treated and incubated as described. Fluxapyroxad and dicamba were dissolved on 0.5% DMSO. Tested concentrations are described in table 4. Control plants were treated with the blank 0.5% DMSO solution only. The efficacy of the tested compounds and mixtures was calculated as % of relative weight loss compared to the control: […] The expected efficacies of the combinations of the compounds were estimated using Colby's formula (Colby, S.

wheat plants = experiment: water loss through transpiration of cut wheat plants (drought tolerance); conditions: for transpiration (water loss): applied alone
Method: The transpiration as an direct indicator of water stress of wheat plants treated or not treated with fluxapyroxad solo, dicamba solo, and respective mixtures thereof was assessed. 10 to 14 days old wheat plants were cut above the ground and placed into Eppendorf caps containing 2.2 ml of the test solution as described below. The wheat plants were incubated for 24 h at 25° C. and 50% relative humidity in a growth chamber. The weight of the Eppendorf cap including the test solution but excluding the plant was assessed before and after incubation. The difference in weight was recorded as the loss of water through transpiration. This assay was used to asses the drought tolerance of the plants. In the present example wheat plants of the variety ‘Monopol’ were grown at 18° C. for 10 days in the greenhouse prior to the treatment and the incubation. 10 plants per treatment were treated and incubated as described. Fluxapyroxad and dicamba were dissolved on 0.5% DMSO. The tested concentrations are described in table 3. Control plants were treated with the blank 0.5% DMSO solution only. The efficacy of the tested compounds and mixtures was calculated as % of water loss compared to the control; […] The expected efficacies of the combinations of the compounds were estimated using Colby's formula (Colby, S.

## COc1c(Cl)ccc(Cl)c1C(=O)O [Dicamba, dicamba]
Cucumber cotyledons
  stimulation of the growth of the cotyledons: no stimulation of the growth
Cucumber cotyledons; dicamba 1.25 ppm
  Mean cotyledon biomass: 48.2 mg
  Observed efficacy: 0.2%
Wheat leaves
  fresh weight loss: reduced fresh weight loss
Wheat leaves; dicamba 1.25 ppm
  Mean relative weight loss: 17.09%
  Observed efficacy: 10.69%
Wheat leaves; dicamba 12.5 ppm
  Mean relative weight loss: 15.74%
  Observed efficacy: 17.76%
Wheat plants; dicamba 1.25 ppm
  Mean water loss: 0.781 g
  Observed efficacy: −4.8%
Wheat plants; dicamba 12.5 ppm
  Mean water loss: 0.765 g
  Observed efficacy: −2.7%
Wheat plants; dicamba 125 ppm
  Mean water loss: 0.737 g
  Observed efficacy: 1.1%
Wheat plants; lower concentrations
  transpiration (water loss): increased transpiration

## Cn1cc(C(=O)Nc2ccccc2-c2cc(F)c(F)c(F)c2)c(C(F)F)n1 [Fluxapyroxad, N-(3′,4′,5′-trifluorobiphenyl-2-yl)-3-difluoromethyl-1-methyl-1H-pyrazole-4-carboxamide]
Cucumber cotyledons
  stimulation of the growth of the cotyledons: no stimulation of the growth
Cucumber cotyledons; fluxapyroxad 5 ppm
  Mean cotyledon biomass: 47.1 mg
  Observed efficacy: −1.9%
Wheat leaves
  fresh weight loss: reduced fresh weight loss
Wheat leaves; fluxapyroxad 10 ppm, 24 h incubation, then 60 minutes on filter paper (25° C., 50% rel. humidity)
  Mean relative weight loss: 17.62%
Wheat leaves; fluxapyroxad 10 ppm, relative weight loss compared to the control
  Observed efficacy: 7.94%
Wheat leaves; fluxapyroxad 50 ppm
  Mean relative weight loss: 13.61%
  Observed efficacy: 28.89%
Wheat plants; fluxapyroxad 10 ppm, 24 h at 25° C., 50% relative humidity
  Mean water loss: 1.061 g
Wheat plants; fluxapyroxad 10 ppm, water loss compared to the control
  Observed efficacy: −42.4%
Wheat plants; fluxapyroxad 50 ppm
  Mean water loss: 0.660 g
  Observed efficacy: 11.5%
Wheat plants; fluxapyroxad 100 ppm
  Mean water loss: 0.607 g
  Observed efficacy: 18.5%
Wheat plants; higher concentrations
  transpiration (water loss): decreased transpiration
Wheat plants; lower concentrations
  transpiration (water loss): increased transpiration
